This note sets out measurements from patent US10752656B2, “Anti-microbial supramolecular structures” (Northwestern University, priority 2016, dated 2020).

A short description of data set [1]: Rheological experiment on PA gels formed with CaCl2. The format is physicochemical. The settings on record: 5 mM PA gelled with 0.2 M CaCl2, 100 Hz, 0.5% strain, 25° C. Here is the method: The mechanical property of the PAs was evaluated by performing rheological studies. 25 μL of 0.2 M CaCl2 were added to gel 250 μL of 5 mM PA MilliQ-water solution aged for 2 days on the rheometer. Tests were performed at 100 Hz with 0.5% strain at 25° C., using a 25 mm parallel plate with a 0.5 mm gap distance. The storage moduli used were taken from the time test at 5000 seconds. Frequency sweeps were done at a constant strain of 0.5%, and strain sweeps were done at a frequency of 100 Hz. The plateau modulus was determined as 10, 7.5, 7.5, and 2.8 kPa for parent PA, PA Z1, Z2, and Z3, respectively.

A further data set relates to Staphylococcus aureus. The format is cell-based. Here is the method:
S. aureus (ATCC 25923) (American Type Culture Collection, Manassas, Va.) was cultured in LB broth overnight at 37° C. The suspension of the overnight culture was inoculated in fresh LB broth and cultured under aerobic conditions until reaching an OD600 value of approximately 0.5 (exponential growth phase). The bacterial cells were harvested by centrifugation at 1,500×g for 10 min, washed thrice with PBS, and re-suspended in the appropriate solution for experiment. The bacterial cell suspensions were diluted to an OD600 value of 0.1, which corresponds to 1×10^7 CFU/mL for S. aureus. Before experiment, the bacterial cells were then diluted 1:10 with PBS unless otherwise noted.
The MIC values of peptide amphiphiles were determined in PBS. The MIC determination was made by the Mueller-Hinton (MH) agar plate method. Two-fold serial dilutions of test compound (peptide amphiphiles) solutions in PBS were firstly made in a 96-well microtiter plate. The test compound concentration ranged from 500 μM to 1 μM with 50 μL volume. Then, 50 μL of S. aureus (1×10^6 CFU/mL) suspended in PBS was added to each well for a final cell density of 5×10^5 CFU/mL. The samples were incubated for 3 hrs at 37° C., and then streaked onto MH agar plates. The plates were incubated overnight at 37° C. and the MIC value was recorded based on the lowest test compound concentration that inhibited colony growth.
The minimum inhibitory concentration (MIC) of the PAs against Staphylococcus aureus was determined to estimate their bioactivity as antimicrobial agents. The bacterial cell density is 5×10^5 CFU/mL, and the concentration of the PA solutions is ranging from 0.3 μM to 500 μM. […], the MIC value for PAs Z1 and Z2 was determined to be 4 μM, while inhibition of the growth of the bacterium after treatment by parent PA and PA Z3 at 500 μM was not observed.

≈ marks a conversion by molar mass, not a printed value. Non-standard residues stand in square brackets, D forms with d. Residues, ends and D or L forms follow the SMILES beside them. *: point of attachment. Phe(F5) = N[C@@H](Cc1c(F)c(F)c(F)c(F)c1F)C(=O)O; Palmitoyl = CCCCCCCCCCCCCCCC(=O)*

In the case of `CCCCCCCCCCCCCCCC(=O)N[C@H](C(=O)N[C@H](C(=O)N[C@H](C(=O)N[C@@H](C)C(=O)N[C@@H](C)C(=O)N[C@@H](C)C(=O)N[C@@H](CCC(=O)O)C(=O)N[C@@H](CCC(=O)O)C(=O)N[C@@H](CCC(=O)O)C(N)=O)C(C)C)C(C)C)C(C)C` [parent PA, reference compound] (Palmitoyl-VVVAAAEEE-NH2; C-terminus assumed), the plateau modulus in data set [1] came out at 10 kPa. In the data set with Staphylococcus aureus, the “minimum inhibitory concentration (MIC)” value was greater than 500 µM.

`CCCCCCCCCCCCCCCC(=O)N[C@H](C(=O)N[C@@H](Cc1c(F)c(F)c(F)c(F)c1F)C(=O)N[C@H](C(=O)N[C@@H](C)C(=O)N[C@@H](C)C(=O)N[C@@H](C)C(=O)N[C@@H](CCC(=O)O)C(=O)N[C@@H](CCC(=O)O)C(=O)N[C@@H](CCC(=O)O)C(N)=O)C(C)C)C(C)C` [PA Z2] (Palmitoyl-V[Phe(F5)]VAAAEEE-NH2; C-terminus assumed): in data set [1], the plateau modulus is 7.5 kPa. Also, the “minimum inhibitory concentration (MIC)” value in the data set on Staphylococcus aureus came to 4 µM (≈ 5.17 µg/mL).

For the compound `CCCCCCCCCCCCCCCC(=O)N[C@H](C(=O)N[C@H](C(=O)N[C@@H](Cc1c(F)c(F)c(F)c(F)c1F)C(=O)N[C@@H](C)C(=O)N[C@@H](C)C(=O)N[C@@H](C)C(=O)N[C@@H](CCC(=O)O)C(=O)N[C@@H](CCC(=O)O)C(=O)N[C@@H](CCC(=O)O)C(N)=O)C(C)C)C(C)C` [PA Z3] (Palmitoyl-VV[Phe(F5)]AAAEEE-NH2; C-terminus assumed), the plateau modulus in data set [1] is reported as 2.8 kPa. Moreover, in the data set with Staphylococcus aureus, the “minimum inhibitory concentration (MIC)” value is greater than 500 µM.

Take `CCCCCCCCCCCCCCCC(=O)N[C@@H](Cc1c(F)c(F)c(F)c(F)c1F)C(=O)N[C@H](C(=O)N[C@H](C(=O)N[C@@H](C)C(=O)N[C@@H](C)C(=O)N[C@@H](C)C(=O)N[C@@H](CCC(=O)O)C(=O)N[C@@H](CCC(=O)O)C(=O)N[C@@H](CCC(=O)O)C(N)=O)C(C)C)C(C)C` [PA Z1] (Palmitoyl-[Phe(F5)]VVAAAEEE-NH2; C-terminus assumed): the plateau modulus in data set [1] was found to be 7.5 kPa. Moreover, the “minimum inhibitory concentration (MIC)” value with Staphylococcus aureus came out at 4 µM (≈ 5.17 µg/mL).
